# Data as given in the supplement of paper PMC8617591.
# Experiments:
# [1] = test system: Mycobacterium tuberculosis Erdman (autoluminescent); assay: GRinf, maximum normalised growth rate inhibition (three-drug combination) (unitless (-1 to 1)); higher = less effect (negative = killing)
# Experimental: (§1)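 DiaMOND equipotent three-drug combination dose responses (10 doses, 1.5- or 2-fold spacing, centred on IC90) against autoluminescent M. tuberculosis Erdman in 8 in vitro models. Read-out is OD600, or luminescence for the intracellular and dormancy models, normalised to untreated wells. Hill-fit Einf, AUC25 and GRinf are potency metrics; FIC50 and FIC90 are total Loewe fractional inhibitory concentrations as log2 (negative = synergy).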
# [2] = test system: Mycobacterium tuberculosis Erdman (autoluminescent); assay: total FIC50 (Loewe) at 50% inhibition, three-drug combination (log2); higher = more antagonistic
# Experimental: as §1
# [3] = test system: Mycobacterium tuberculosis Erdman (autoluminescent); assay: Einf, fitted maximum growth inhibition of three-drug combination (fraction); higher = stronger maximal inhibition
# Experimental: as §1
# [4] = test system: Mycobacterium tuberculosis Erdman (autoluminescent); assay: total FIC90 (Loewe) at 90% inhibition, three-drug combination (log2); higher = more antagonistic
# Experimental: as §1
# [5] = test system: Mycobacterium tuberculosis Erdman (autoluminescent); assay: AUC25, normalised area under dose response up to IC25 (three-drug combination) (fraction (0-1)); higher = more potent at low dose
# Experimental: as §1
# [6] = in vitro model: acidic pH 5.7, time point: constant (~7 days, model-specific)
# [7] = in vitro model: acidic pH 5.7, time point: terminal (~4-5 doublings, model-specific)
# [8] = in vitro model: butyrate, time point: constant (~7 days, model-specific)
# [9] = in vitro model: butyrate, time point: terminal (~4-5 doublings, model-specific)
# [10] = in vitro model: cholesterol 0.05 mM, time point: constant (~7 days, model-specific)
# [11] = in vitro model: cholesterol 0.05 mM, time point: terminal (~4-5 doublings, model-specific)
# [12] = in vitro model: cholesterol-high 0.2 mM, time point: constant (~7 days, model-specific)
# [13] = in vitro model: cholesterol-high 0.2 mM, time point: terminal (~4-5 doublings, model-specific)
# [14] = in vitro model: dormancy (butyrate + nitrate, low O2), time point: constant (~7 days, model-specific)
# [15] = in vitro model: dormancy (butyrate + nitrate, low O2), time point: terminal (~4-5 doublings, model-specific)
# [16] = in vitro model: intracellular J774, time point: constant = terminal
# [17] = in vitro model: standard 7H9 glycerol, time point: constant = terminal
# [18] = in vitro model: valerate, time point: constant (~7 days, model-specific)
# [19] = in vitro model: valerate, time point: terminal (~4-5 doublings, model-specific)
structure (smiles),measurement,setting,value
NNC(=O)c1ccncc1 [isoniazid] + NC(=O)c1cnccn1 [pyrazinamide] + CO[C@H]1/C=C/O[C@@]2(C)Oc3c(C)c(O)c4c(O)c(c(/C=N/N5CCN(C6CCCC6)CC5)c(O)c4c3C2=O)NC(=O)/C(C)=C\C=C\[C@H](C)[C@H](O)[C@@H](C)[C@@H](O)[C@@H](C)[C@H](OC(C)=O)[C@@H]1C [rifapentine],GRinf,[1]; [6],-0.35
same,GRinf,[1]; [7],-0.234
same,GRinf,[1]; [8],-0.00381
same,GRinf,[1]; [9],0.0193
same,GRinf,[1]; [10],-0.183
same,GRinf,[1]; [11],-0.166
same,GRinf,[1]; [12],-0.222
same,GRinf,[1]; [13],-0.658
same,GRinf,[1]; [14],0.232
same,GRinf,[1]; [15],-0.0606
same,GRinf,[1]; [16],-0.309
same,GRinf,[1]; [17],0.0607
same,GRinf,[1]; [18],-0.183
same,GRinf,[1]; [19],-0.0194
same,total FIC50,[2]; [6],-3.55
same,total FIC50,[2]; [7],-2.67
same,total FIC50,[2]; [8],-1.95
same,total FIC50,[2]; [9],-1.85
same,total FIC50,[2]; [11],-0.19
same,total FIC50,[2]; [12],0.738
same,total FIC50,[2]; [13],1.17
same,total FIC50,[2]; [14],-2.31
same,total FIC50,[2]; [15],-2.22
same,total FIC50,[2]; [17],-5.95
same,total FIC50,[2]; [18],-1.89
same,total FIC50,[2]; [19],-1.1
same,Einf,[3]; [6],0.925
same,Einf,[3]; [7],0.985
same,Einf,[3]; [8],0.924
same,Einf,[3]; [9],0.969
same,Einf,[3]; [10],0.706
same,Einf,[3]; [11],0.893
same,Einf,[3]; [12],0.905
same,Einf,[3]; [13],0.997
same,Einf,[3]; [14],0.883
same,Einf,[3]; [15],0.973
same,Einf,[3]; [16],0.987
same,Einf,[3]; [17],0.915
same,Einf,[3]; [18],0.878
same,Einf,[3]; [19],0.949
same,total FIC90,[4]; [7],-3.81
same,total FIC90,[4]; [8],0.6
same,total FIC90,[4]; [9],-1.91
same,total FIC90,[4]; [13],1.11
same,total FIC90,[4]; [14],-2.4
same,total FIC90,[4]; [15],-2.43
same,total FIC90,[4]; [16],0.243
same,total FIC90,[4]; [19],-0.889
same,AUC25,[5]; [6],0.096
same,AUC25,[5]; [7],0.0425
same,AUC25,[5]; [8],0.0899
same,AUC25,[5]; [9],0.0698
same,AUC25,[5]; [10],0.108
same,AUC25,[5]; [11],0.0828
same,AUC25,[5]; [12],0.0744
same,AUC25,[5]; [13],0.0802
same,AUC25,[5]; [14],0.0611
same,AUC25,[5]; [15],0.0351
same,AUC25,[5]; [17],0.066
same,AUC25,[5]; [18],0.118
same,AUC25,[5]; [19],0.0446
NNC(=O)c1ccncc1 [isoniazid] + NC(=O)c1cnccn1 [pyrazinamide] + CO[C@H]1/C=C/O[C@@]2(C)Oc3c(C)c(O)c4c(O)c(c(/C=N/N5CCN(C)CC5)c(O)c4c3C2=O)NC(=O)/C(C)=C\C=C\[C@H](C)[C@H](O)[C@@H](C)[C@@H](O)[C@@H](C)[C@H](OC(C)=O)[C@@H]1C [rifampicin],GRinf,[1]; [6],-0.12
same,GRinf,[1]; [7],-0.193
same,GRinf,[1]; [8],0.00703
same,GRinf,[1]; [9],0.0033
same,GRinf,[1]; [10],-0.0371
same,GRinf,[1]; [11],-0.1
same,GRinf,[1]; [12],-0.258
same,GRinf,[1]; [13],-0.795
same,GRinf,[1]; [14],0.224
same,GRinf,[1]; [15],-0.0973
same,GRinf,[1]; [16],-0.255
same,GRinf,[1]; [17],0.0491
same,GRinf,[1]; [18],0.0565
same,GRinf,[1]; [19],0.0571
same,total FIC50,[2]; [6],-1.79
same,total FIC50,[2]; [7],-1.2
same,total FIC50,[2]; [8],-2.04
same,total FIC50,[2]; [9],-2.09
same,total FIC50,[2]; [11],0.166
same,total FIC50,[2]; [12],0.702
same,total FIC50,[2]; [13],1.16
same,total FIC50,[2]; [14],-2.66
same,total FIC50,[2]; [15],-3.09
same,total FIC50,[2]; [17],-5.81
same,total FIC50,[2]; [18],-2.11
same,total FIC50,[2]; [19],-1.04
same,Einf,[3]; [6],0.864
same,Einf,[3]; [7],0.988
same,Einf,[3]; [8],0.921
same,Einf,[3]; [9],0.967
same,Einf,[3]; [10],0.633
same,Einf,[3]; [11],0.865
same,Einf,[3]; [12],0.91
same,Einf,[3]; [13],1
same,Einf,[3]; [14],0.891
same,Einf,[3]; [15],0.979
same,Einf,[3]; [16],0.976
same,Einf,[3]; [17],0.917
same,Einf,[3]; [18],0.86
same,Einf,[3]; [19],0.928
same,total FIC90,[4]; [7],-1.75
same,total FIC90,[4]; [8],0.665
same,total FIC90,[4]; [9],-2.12
same,total FIC90,[4]; [13],0.74
same,total FIC90,[4]; [14],-3.39
same,total FIC90,[4]; [15],-2.85
same,total FIC90,[4]; [16],0.327
same,total FIC90,[4]; [19],-1.36
same,AUC25,[5]; [6],0.0814
same,AUC25,[5]; [7],0.0574
same,AUC25,[5]; [8],0.103
same,AUC25,[5]; [9],0.0827
same,AUC25,[5]; [10],0.088
same,AUC25,[5]; [11],0.0858
same,AUC25,[5]; [12],0.0657
same,AUC25,[5]; [13],0.0664
same,AUC25,[5]; [14],0.0642
same,AUC25,[5]; [15],0.0565
same,AUC25,[5]; [17],0.0763
same,AUC25,[5]; [18],0.0587
same,AUC25,[5]; [19],0.0331
NNC(=O)c1ccncc1 [isoniazid] + O=[N+]([O-])c1cn2c(n1)OC[C@@H](OCc1ccc(OC(F)(F)F)cc1)C2 [pretomanid] + CO[C@H]1/C=C/O[C@@]2(C)Oc3c(C)c(O)c4c(O)c(c(/C=N/N5CCN(C6CCCC6)CC5)c(O)c4c3C2=O)NC(=O)/C(C)=C\C=C\[C@H](C)[C@H](O)[C@@H](C)[C@@H](O)[C@@H](C)[C@H](OC(C)=O)[C@@H]1C [rifapentine],GRinf,[1]; [6],-0.193
same,GRinf,[1]; [7],-0.24
same,GRinf,[1]; [8],-0.00998
same,GRinf,[1]; [9],0.00856
same,GRinf,[1]; [10],-0.151
same,GRinf,[1]; [11],-0.223
same,GRinf,[1]; [12],-0.0225
same,GRinf,[1]; [13],-0.46
same,GRinf,[1]; [14],0.27
same,GRinf,[1]; [15],-0.11
same,GRinf,[1]; [16],-0.647
same,GRinf,[1]; [17],0.179
same,GRinf,[1]; [18],-0.014
same,GRinf,[1]; [19],-0.167
same,total FIC50,[2]; [6],4.53
same,total FIC50,[2]; [7],4.23
same,total FIC50,[2]; [8],2.86
same,total FIC50,[2]; [9],2.77
same,total FIC50,[2]; [10],1.97
same,total FIC50,[2]; [11],2.05
same,total FIC50,[2]; [12],0.663
same,total FIC50,[2]; [13],0.773
same,total FIC50,[2]; [14],2.68
same,total FIC50,[2]; [15],2.7
same,total FIC50,[2]; [17],4.92
same,total FIC50,[2]; [18],2.74
same,total FIC50,[2]; [19],3.29
same,Einf,[3]; [6],0.917
same,Einf,[3]; [7],0.992
same,Einf,[3]; [8],0.927
same,Einf,[3]; [9],0.966
same,Einf,[3]; [10],0.687
same,Einf,[3]; [11],0.914
same,Einf,[3]; [12],0.808
same,Einf,[3]; [13],0.994
same,Einf,[3]; [14],0.871
same,Einf,[3]; [15],0.978
same,Einf,[3]; [16],0.999
same,Einf,[3]; [17],0.884
same,Einf,[3]; [18],0.894
same,Einf,[3]; [19],0.938
same,total FIC90,[4]; [7],4.33
same,total FIC90,[4]; [8],1.02
same,total FIC90,[4]; [9],2.95
same,total FIC90,[4]; [11],0.57
same,total FIC90,[4]; [13],0.83
same,total FIC90,[4]; [14],2.64
same,total FIC90,[4]; [15],2.66
same,total FIC90,[4]; [16],0.264
same,total FIC90,[4]; [19],2.95
same,AUC25,[5]; [6],0.0727
same,AUC25,[5]; [7],0.0598
same,AUC25,[5]; [8],0.0925
same,AUC25,[5]; [9],0.0727
same,AUC25,[5]; [10],0.0995
same,AUC25,[5]; [11],0.0863
same,AUC25,[5]; [12],0.0548
same,AUC25,[5]; [13],0.0663
same,AUC25,[5]; [14],0.0593
same,AUC25,[5]; [15],0.0428
same,AUC25,[5]; [17],0.0426
same,AUC25,[5]; [18],0.102
same,AUC25,[5]; [19],0.0549
